Experimental data: US9448237B2, “Modified tyrosine amino acids, peptides containing them, and their use for detecting hydrolase enzyme activity” (PAMGENE B.V., priority 2011, dated 2016)

Key:
phosphatase PTP1B = phosphatase PTP1B (Homo sapiens, UniProt P18031); conditions: spotted with 1 mM peptide solution; one hour incubation with PTP1B in Tris-buffer containing DTT; FIG. 7
Procedure: After one hour incubation with phosphatase PTP1B in a Tris-buffer containing DTT, the microarray was washed and treated with a solution of PY20 antibody. […] The left image: not treated with PTP1B. The right image: treated with PTP1B.

phosphatase = conditions: FIG. 5
Procedure: A Tris buffer (25 μL, 50 mM, pH 7.4, modified with 0.5 mM DTT) was used to dissolve the appropriate phosphatase (20-100 ng) together with BSA (0.25 μL, 10 mg/mL), anti-nitrotyrosine antibody (0.5 μL, 0.5 mg/mL in PBS pH 7.4), FITC-goat-anti-mouse antibody (0.5 μL, 4 μg/mL). The resulting mixture was added to Pamchip® microarrays and the fluorescence imaged in real time using a Pamstation® PS12 instrument. The images were analyzed using the Bionavigator software package (Pamgene International BV, 's-Hertogenbosch, The Netherlands).
To the mixture described in Example 14, a 1 μL amount of sodium vanadate solutions with appropriate concentration was added.

Sequence of phosphatase PTP1B (P18031 whole entry): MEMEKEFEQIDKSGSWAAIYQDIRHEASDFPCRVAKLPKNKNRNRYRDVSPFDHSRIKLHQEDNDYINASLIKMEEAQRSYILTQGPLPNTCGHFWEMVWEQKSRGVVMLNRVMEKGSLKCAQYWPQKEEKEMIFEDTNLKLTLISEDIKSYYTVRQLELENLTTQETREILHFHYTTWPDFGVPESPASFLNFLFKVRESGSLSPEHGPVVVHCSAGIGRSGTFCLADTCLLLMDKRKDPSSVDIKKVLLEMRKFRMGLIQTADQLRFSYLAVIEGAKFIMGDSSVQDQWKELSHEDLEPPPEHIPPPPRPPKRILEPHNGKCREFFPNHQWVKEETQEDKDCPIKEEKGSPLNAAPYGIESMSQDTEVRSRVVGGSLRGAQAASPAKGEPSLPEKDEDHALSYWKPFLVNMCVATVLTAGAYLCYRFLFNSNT

H-CDADE-(3-Br-pY)-LIPQQG-NH2 [3-bromo-phosphotyrosine peptide]
recognition as substrate and dephosphorylation by phosphatase (phosphatase PTP1B): recognized by the phosphatase and dephosphorylated equally well

sodium ortho-vanadate
inhibition of the phosphatase enzyme activity (phosphatase): concentration dependent inhibition
